“And” between values parts separate entries of the source, which are not always exact repeats. Equal entries are not always repeated. Toxic doses and inconclusive results are not listed. Rule for the calls: active = survival T/C of 150% or more; inactive = T/C below 125% in these data.
Tested on: CD2F1 mice, P388/ADR leukemia ip, median survival T/C
Experiment: NCI In Vivo Anticancer Drug Screen. Data for tumor model P388 Leukemia resistant to Adriamycin; NSC 123127, Developed at Scr 08 (intraperitoneal) in CD2F1 (CDF1) mice
Details: endpoint: median survival time, higher = longer survival
Experimental: The antitumor activity of compounds was measured in mice bearing transplantable tumors. Survival or tumor size were measured and the results are expressed as the measurement made in the treated group (T) divided by the measurement made in the vehicle treated control group (C). The tumor model used in this assay is P388 Leukemia resistant to Adriamycin; NSC 123127, Developed at Scr 08 (intraperitoneal) in CD2F1 (CDF1) mice

[1] = dose: 3.12 mg/kg/injection, schedule: Q01DX005 (ip), vehicle: Klucel (hydroxypropylcellulose) (HPC)
[2] = dose: 6.25 mg/kg/injection, schedule: Q01DX005 (ip), vehicle: Klucel (hydroxypropylcellulose) (HPC)
[3] = dose: 12.5 mg/kg/injection, schedule: Q01DX005 (ip), vehicle: saline with Tween-80
[4] = dose: 50.0 mg/kg/injection, schedule: Q01DX005 (ip), vehicle: saline

Measured: T/C

COc1ccc(CCN(C)CCCC(C#N)(c2ccc(OC)c(OC)c2)C(C)C)cc1OC (stereo not drawn)
inactive: dose: 8.0 mg/kg/injection, schedule: Q03HX006 (ip), vehicle: saline 110 % of control | dose: 16.0 mg/kg/injection, schedule: Q03HX006 (ip), vehicle: saline 104 % of control | dose: 32.0 mg/kg/injection, schedule: Q03HX006 (ip), vehicle: saline 103 % of control

CCOc1ccc(C(C)c2cc3c(cc2OC)OCO3)cc1 (stereo not drawn)
active: dose: 200.0 mg/kg/injection, schedule: Q01DX005 (ip), vehicle: distilled water + Tween-80 167 % of control and 184 % of control | dose: 333.33 mg/kg/injection, schedule: Q01DX005 (ip), vehicle: distilled water + Tween-80 165 % of control and 176 % of control
inactive: dose: 25.0 mg/kg/injection, schedule: Q01DX005 (ip), vehicle: distilled water + Tween-80 110 % of control | dose: 50.0 mg/kg/injection, schedule: Q01DX005 (ip), vehicle: distilled water + Tween-80 100 % of control | dose: 72.0 mg/kg/injection, schedule: Q01DX005 (ip), vehicle: distilled water + Tween-80 117 % of control | dose: 100.0 mg/kg/injection, schedule: Q01DX005 (ip), vehicle: distilled water + Tween-80 113 % of control | dose: 120.0 mg/kg/injection, schedule: Q01DX005 (ip), vehicle: distilled water + Tween-80 118 % of control

CN=C(NC)c1ccc(NC(=O)/C=C\c2ccc(/C=C/C(=O)Nc3ccc(C(=NC)NC)cc3)cc2)cc1
inactive: dose: 1.56 mg/kg/injection, schedule: Q01DX005 (ip), vehicle: Klucel (hydroxypropylcellulose) (HPC) 107 % of control | [1] 109 % of control | [2] 116 % of control

N=C(N)c1ccc(N=NNc2ccc(C(=N)N)cc2)cc1
inactive: [3] 105 % of control | dose: 25.0 mg/kg/injection, schedule: Q01DX005 (ip), vehicle: saline with Tween-80 115 % of control | dose: 50.0 mg/kg/injection, schedule: Q01DX005 (ip), vehicle: saline with Tween-80 117 % of control

NCCCNCCCCNC(=O)C(O)NC(=O)CCCCCCN=C(N)N (stereo not drawn)
active: dose: 4.4 mg/kg/injection, schedule: Q01DX009 (ip), vehicle: other 195 % of control | dose: 4.4 mg/kg/injection, schedule: Q01DX009 (ip), vehicle: saline 193 % of control | dose: 6.7 mg/kg/injection, schedule: Q01DX009 (ip), vehicle: other 195 % of control | dose: 6.7 mg/kg/injection, schedule: Q01DX009 (ip), vehicle: saline 198 % of control | dose: 10.0 mg/kg/injection, schedule: Q01DX009 (ip), vehicle: other 205 % of control | dose: 10.0 mg/kg/injection, schedule: Q01DX009 (ip), vehicle: saline 206 % of control | dose: 15.0 mg/kg/injection, schedule: Q01DX009 (ip), vehicle: other 209 % of control | dose: 15.0 mg/kg/injection, schedule: Q01DX009 (ip), vehicle: saline 212 % of control | dose: 22.5 mg/kg/injection, schedule: Q01DX009 (ip), vehicle: other 162 % of control | dose: 22.5 mg/kg/injection, schedule: Q01DX009 (ip), vehicle: saline 219 % of control

O=[N+]([O-])c1ccc([I+]c2ccccc2)cc1
inactive: dose: 6.25 mg/kg/injection, schedule: Q01DX005 (ip), vehicle: saline with Tween-80 124 % of control | [3] 124 % of control
active: dose: 100.0 mg/kg/injection, schedule: Q01DX005 (ip), vehicle: saline with Tween-80 155 % of control

Nc1nc(F)nc2c1ncn2C1OC(COP(=O)(O)O)C(O)C1O (stereo not drawn)
inactive: dose: 250.0 mg/kg/injection, schedule: Q01DX009 (ip), vehicle: saline 108 % of control
active: dose: 60.0 mg/kg/injection, schedule: Q01DX009 (ip), vehicle: saline 219 % of control and 239 % of control | dose: 90.0 mg/kg/injection, schedule: Q01DX009 (ip), vehicle: saline 309 % of control and 429 % of control | dose: 134.0 mg/kg/injection, schedule: Q01DX009 (ip), vehicle: saline 309 % of control and 445 % of control | dose: 200.0 mg/kg/injection, schedule: Q01DX009 (ip), vehicle: saline 309 % of control and 394 % of control

c1ccc(OCC2CO2)c(OCC2CO2)c1 (stereo not drawn)
active: dose: 60.0 mg/kg/injection, schedule: Q01DX005 (ip), vehicle: saline with Tween-80 171 % of control | dose: 120.0 mg/kg/injection, schedule: Q01DX005 (ip), vehicle: saline with Tween-80 164 % of control and 167 % of control | dose: 240.0 mg/kg/injection, schedule: Q01DX005 (ip), vehicle: saline with Tween-80 252 % of control

O=P1(N(CCCl)CCCl)NCCCO1 (stereo not drawn)
active: dose: 12.5 mg/kg/injection, schedule: Q01DX005 (ip), vehicle: saline 154 % of control | dose: 25.0 mg/kg/injection, schedule: Q01DX005 (ip), vehicle: saline 165 % of control and 189 % of control | [4] 191 % of control and 217 % of control | dose: 100.0 mg/kg/injection, schedule: Q01DX005 (ip), vehicle: saline 171 % of control and 309 % of control

CN(C)/N=N/c1nc[nH]c1C(N)=O
active: dose: 100.0 mg/kg/injection, schedule: Q01DX009 (ip), vehicle: distilled water + Tween-80 166 % of control | dose: 200.0 mg/kg/injection, schedule: Q01DX009 (ip), vehicle: distilled water + Tween-80 158 % of control and 178 % of control
inactive: dose: 25.0 mg/kg/injection, schedule: Q01DX009 (ip), vehicle: distilled water + Tween-80 112 % of control | dose: 50.0 mg/kg/injection, schedule: Q01DX009 (ip), vehicle: distilled water + Tween-80 124 % of control
201 % of control and 123 % of control: dose: 400.0 mg/kg/injection, schedule: Q01DX009 (ip), vehicle: distilled water + Tween-80

CNC(=O)OCc1nc(SC)n(C)c1COC(=O)NC
inactive: dose: 77.0 mg/kg/injection, schedule: Q01DX005 (ip), vehicle: saline 91 % of control
active: dose: 30.0 mg/kg/injection, schedule: Q01DX005 (ip), vehicle: saline 155 % of control | dose: 40.0 mg/kg/injection, schedule: Q01DX005 (ip), vehicle: saline 154 % of control | [4] 158 % of control | dose: 51.0 mg/kg/injection, schedule: Q01DX005 (ip), vehicle: saline 163 % of control | dose: 65.0 mg/kg/injection, schedule: Q01DX005 (ip), vehicle: saline 155 % of control

O=C(Nc1ccccc1)c1c(O)[nH]c(=S)[nH]c1=O
active: dose: 30.0 mg/kg/injection, schedule: Q01DX009 (ip), vehicle: saline with Tween-80 173 % of control | dose: 44.0 mg/kg/injection, schedule: Q01DX009 (ip), vehicle: saline with Tween-80 181 % of control | dose: 67.0 mg/kg/injection, schedule: Q01DX009 (ip), vehicle: saline with Tween-80 160 % of control | dose: 75.0 mg/kg/injection, schedule: Q01DX009 (ip), vehicle: saline with Tween-80 170 % of control | dose: 100.0 mg/kg/injection, schedule: Q01DX009 (ip), vehicle: saline with Tween-80 173 % of control and 181 % of control | dose: 125.0 mg/kg/injection, schedule: Q01DX009 (ip), vehicle: saline with Tween-80 195 % of control | dose: 150.0 mg/kg/injection, schedule: Q01DX009 (ip), vehicle: saline with Tween-80 197 % of control

COc1ccc2[nH]c3ccc4cc[n+](CCN5CCC(C6CCN(CC[n+]7ccc8ccc9[nH]c%10ccc(OC)cc%10c9c8c7)CC6)CC5)cc4c3c2c1
active: dose: 8.0 mg/kg/injection, schedule: Q01DX005 (ip), vehicle: water 152 % of control | dose: 16.0 mg/kg/injection, schedule: Q01DX005 (ip), vehicle: water 158 % of control | dose: 32.0 mg/kg/injection, schedule: Q01DX005 (ip), vehicle: water 163 % of control
inactive: dose: 2.0 mg/kg/injection, schedule: Q01DX005 (ip), vehicle: water 119 % of control | dose: 4.0 mg/kg/injection, schedule: Q01DX005 (ip), vehicle: water 123 % of control

CN(Cc1cnc2nc(N)nc(N)c2n1)c1ccc(C(=O)N[C@@H](CCC(=O)O)C(=O)O)cc1
inactive: dose: 0.38 mg/kg/injection, schedule: Q01DX005 (ip), vehicle: sodium bicarbonate 122 % of control
active: dose: 0.75 mg/kg/injection, schedule: Q01DX005 (ip), vehicle: sodium bicarbonate 155 % of control | dose: 1.5 mg/kg/injection, schedule: Q01DX005 (ip), vehicle: sodium bicarbonate 179 % of control | dose: 3.0 mg/kg/injection, schedule: Q01DX005 (ip), vehicle: sodium bicarbonate 191 % of control and 195 % of control

CC1=C(C(N)=O)C(c2ccccc2)NC(=S)N1 (stereo not drawn)
inactive: [1] 99 % of control | [2] 101 % of control | dose: 12.5 mg/kg/injection, schedule: Q01DX005 (ip), vehicle: Klucel (hydroxypropylcellulose) (HPC) 98 % of control | dose: 25.0 mg/kg/injection, schedule: Q01DX005 (ip), vehicle: Klucel (hydroxypropylcellulose) (HPC) 96 % of control and 107 % of control | dose: 50.0 mg/kg/injection, schedule: Q01DX005 (ip), vehicle: Klucel (hydroxypropylcellulose) (HPC) 96 % of control
